This note sets out measurements from ChEMBL document CHEMBL1201862, “PubChem BioAssay data set” (2004).

Calls of active or inactive are those of the source.

Data set [1] can be described thus: inhibitors of intracellular T. cruzi replication, confirmation, NIH3T3 host cells, beta-gal luminescence (AID 2044).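 Note: intracellular parasites grown in NIH/3T3 mouse fibroblasts as host cells; luminescent beta-galactosidase reporter signal from transgenic T. cruzi replicating inside host cells; inhibitors lower the luminescence signal.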 The data set is classed as functional, cell-based.
Data set [2] is described as follows: cytotoxicity toward NIH3T3 fibroblasts, dose response, counter-screen, cell-based, ATP luminescence, mouse fibroblasts (AID 2010).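 Note: cells exposed to compound for about 90 hours before reading.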 The data set is classed as functional. For orientation: Counterscreens check selectivity or assay interference.
The test system of the next data set is INS1. Nature of the data set: beta cell apoptosis inhibitors, cytokine rescue, dose response, luminescence, retest (AID 449756).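 Note: cell death triggered by IL-1 beta plus TNF-alpha plus IFN-gamma mixture; protective hits raise ATP signal compared with cytokine alone wells.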 The settings on record: Rattus norvegicus. The data set is classed as functional, cell-based.
The next data set addresses Melanocortin receptor 4 (Homo sapiens, UniProt P32245). The data set is classed as functional, cell-based.
The target in data set [3] is Aryl hydrocarbon receptor (Homo sapiens, UniProt P35869). Nature of the data set: Luminescence-based cell-based high throughput dose response assay for activators of the Aryl Hydrocarbon Receptor (AHR). [Related pubchem assays: 2796 (Primary screen (AHR activators in singlicate)), 2845 (Confirmation screen (AHR activators in triplicate)), 434939 (Counterscreen (PXR activators in triplicate)), 2804 (Summary (AHR activators))]. The data set is classed as ADME.

For a further data set, the target named is Cytochrome P450 2C9 (Homo sapiens, UniProt P11712).
Data set [4] in a line: Luminescence Cell-Based Dose Confirmation HTS to Identify Activators of 5'UTR Stem-Loop Driven Alpha-Synuclein mRNA Translation in H4 Neuroglioblastoma Cells. [Related pubchem assays: 1829 (Project Summary), 1814 (Primary HTS)]. The data set is classed as functional.
Data set [5] can be described thus: Luminescence Cell-Based Dose Response HTS to Identify Activators of Luciferase Translation or Activity in H4 […] Cells. [Related pubchem assays: 1829 (Project Summary), 1814 (Primary HTS)]. The data set is classed as functional.
A further data set relates to H4. Nature of the data set: Luminescence Cell-Based Dose Response HTS to Identify Activators of 5'UTR Stem-Loop Driven Prion Protein mRNA Translation in H4 Neuroglioblastoma Cells. [Related pubchem assays: 1829 (Project Summary), 1814 (Primary HTS)]. The data set is classed as functional. The settings on record: Homo sapiens.
The next data set deals with Large T antigen (Simian virus 40, UniProt P03070). The data set is classed as functional, Betapolyomavirus macacae.
The target in the next data set is Estrogen receptor beta (Homo sapiens, UniProt Q92731). Nature of the data set: ERβ–SRC-3 coactivator interaction inhibitors, confirmation, orthogonal assay, biochemical, ELISA, streptavidin-HRP readout (AID 1060). Background: An ELISA detects its analyte on a solid surface through an enzyme-linked reagent.
Another data set has as its target Cytochrome P450 3A4 (Homo sapiens, UniProt P08684).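 Note: CYP3A4 tested as one member of a cytochrome P450 panel screen.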
Another data set deals with NADPH oxidase 1 (Homo sapiens, UniProt Q9Y5S8). The data set is classed as functional, cell-based.
The target of data set [6] is Induced myeloid leukemia cell differentiation protein Mcl-1 (Homo sapiens, UniProt Q07820). Nature of the data set: MCL1-BIM BH3 interaction inhibitors, dose response, biochemical, fluorescence polarization, BIM-BH3 peptide, 1536-well (AID 2217). For orientation: Polarisation of emitted light reports the rotation of a fluorescent probe.
The target in another data set is Bcl-2-like protein 1 (Homo sapiens, UniProt Q07817). Nature of the data set: BCL-XL inhibitors, dose response, selectivity assay for MCL1 inhibitor project, biochemical, fluorescence polarization, 1536-well (AID 2218).
The target of data set [7] is T1, RNA-binding protein pos-1 (Caenorhabditis elegans, UniProt G5EF15).
T1 sequence (G5EF15 whole entry): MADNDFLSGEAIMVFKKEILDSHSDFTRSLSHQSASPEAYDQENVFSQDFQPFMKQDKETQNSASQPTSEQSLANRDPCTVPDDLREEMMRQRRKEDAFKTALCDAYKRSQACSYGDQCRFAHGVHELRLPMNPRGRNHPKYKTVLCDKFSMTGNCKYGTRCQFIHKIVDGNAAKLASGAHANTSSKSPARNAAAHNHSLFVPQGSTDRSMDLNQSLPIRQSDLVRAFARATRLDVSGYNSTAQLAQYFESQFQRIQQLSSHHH
Nature of the data set: inhibitors of POS-1/mex-3 RNA binding, dose response, biochemical, fluorescence polarization (AID 1964).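 Note: purified POS-1 fused to maltose binding protein made in E. coli; potency of compounds blocking POS-1 binding to fluorescent RNA.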

The target in data set [8] is T2, Zinc finger protein mex-5 (Caenorhabditis elegans, UniProt Q9XUB2).
T2 sequence (Q9XUB2 whole entry): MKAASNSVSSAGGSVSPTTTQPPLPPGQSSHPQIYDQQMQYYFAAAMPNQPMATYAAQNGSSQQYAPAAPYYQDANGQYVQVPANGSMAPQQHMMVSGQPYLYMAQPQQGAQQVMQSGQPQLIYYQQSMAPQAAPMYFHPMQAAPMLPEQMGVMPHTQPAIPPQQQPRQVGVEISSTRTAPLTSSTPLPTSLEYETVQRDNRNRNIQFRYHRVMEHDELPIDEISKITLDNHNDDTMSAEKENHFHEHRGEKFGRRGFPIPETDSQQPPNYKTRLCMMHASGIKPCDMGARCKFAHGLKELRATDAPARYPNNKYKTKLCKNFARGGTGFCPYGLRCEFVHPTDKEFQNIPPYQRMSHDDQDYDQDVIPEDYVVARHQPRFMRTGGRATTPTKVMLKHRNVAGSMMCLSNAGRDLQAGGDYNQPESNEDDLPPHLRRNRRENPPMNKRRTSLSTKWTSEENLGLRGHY
Nature of the data set: MEX-5/TCR-2 RNA interaction inhibitors, dose response, biochemical, C. elegans, fluorescence polarization (AID 1960).

Data set [9] deals with Heat shock protein HSP 90-alpha (Homo sapiens, UniProt P07900). The data set is classed as functional, organism-based.
Data set [10] deals with T3, Long-chain-fatty-acid--AMP ligase FadD28 (Mycobacterium tuberculosis, UniProt P9WQ59).
T3 sequence (P9WQ59 whole entry): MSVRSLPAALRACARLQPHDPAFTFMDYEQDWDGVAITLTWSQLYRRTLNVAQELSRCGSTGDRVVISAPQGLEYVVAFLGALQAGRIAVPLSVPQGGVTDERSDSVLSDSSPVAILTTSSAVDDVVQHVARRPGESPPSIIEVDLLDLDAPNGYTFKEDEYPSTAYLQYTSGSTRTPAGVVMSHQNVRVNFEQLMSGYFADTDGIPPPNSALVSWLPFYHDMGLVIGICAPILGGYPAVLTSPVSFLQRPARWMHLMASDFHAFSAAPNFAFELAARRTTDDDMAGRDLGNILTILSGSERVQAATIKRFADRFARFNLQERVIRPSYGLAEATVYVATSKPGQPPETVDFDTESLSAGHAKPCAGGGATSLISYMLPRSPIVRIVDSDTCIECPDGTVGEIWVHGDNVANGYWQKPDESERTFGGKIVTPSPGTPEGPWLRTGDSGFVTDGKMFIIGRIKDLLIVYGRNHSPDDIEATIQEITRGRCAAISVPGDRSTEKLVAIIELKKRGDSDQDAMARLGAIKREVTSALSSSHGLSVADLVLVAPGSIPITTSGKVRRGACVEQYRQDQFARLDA
Nature of the data set: Fluorescence polarization aasay to screen for inhibitors that compete for the binding of FadD28 to a bisubstrate Measured in Biochemical System Using Plate Reader - 2147-01_Inhibitor_Dose_CherryPick_Activity. The data set is classed as functional, Mycobacterium tuberculosis H37Rv.

Another data set concerns the target T4, Estrogen receptor (Homo sapiens, UniProt P03372).
T4 sequence (P03372 whole entry): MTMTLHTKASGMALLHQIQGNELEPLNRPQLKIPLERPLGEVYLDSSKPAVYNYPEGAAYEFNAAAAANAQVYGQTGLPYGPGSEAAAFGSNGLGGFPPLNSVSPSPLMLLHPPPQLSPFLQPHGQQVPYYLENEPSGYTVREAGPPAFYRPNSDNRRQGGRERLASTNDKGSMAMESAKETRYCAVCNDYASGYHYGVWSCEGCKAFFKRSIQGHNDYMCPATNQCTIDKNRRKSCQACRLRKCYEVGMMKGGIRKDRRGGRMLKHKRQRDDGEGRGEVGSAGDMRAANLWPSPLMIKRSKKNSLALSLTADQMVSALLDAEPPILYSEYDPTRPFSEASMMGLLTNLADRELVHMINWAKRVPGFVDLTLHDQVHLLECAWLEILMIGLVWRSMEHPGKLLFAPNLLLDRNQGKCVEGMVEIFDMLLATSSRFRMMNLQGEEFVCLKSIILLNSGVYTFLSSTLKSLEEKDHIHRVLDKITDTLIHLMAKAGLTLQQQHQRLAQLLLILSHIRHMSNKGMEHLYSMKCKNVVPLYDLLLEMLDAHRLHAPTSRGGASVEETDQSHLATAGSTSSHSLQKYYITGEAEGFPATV
Nature of the data set: potentiators of ERα–SRC-1 coactivator binding, dose response, biochemical, TR-FRET, ERα LBD (AID 737).

A further data set relates to Vero. Nature of the data set: host cell cytotoxicity of antiviral hits, dose response, cytotoxicity control for West Nile virus antiviral project, secondary assay (AID 1650). Conditions: Chlorocebus sabaeus. The data set is classed as functional.
Data set [11] can be described thus: Luminescence Cell-Based Dose Retest to Confirm Inhibitors of Cancer Stem Cells. [Related pubchem assays (depositor defined):AID2717, AID2721]. The data set is classed as functional. The settings on record: Homo sapiens.
In another data set the target is 14-3-3 protein gamma (Homo sapiens, UniProt P61981). Nature of the data set: modulators of 14-3-3 gamma client binding – dose response (AID 711). The data set is classed as functional.
Data set [12] deals with T5, Calpain-2 catalytic subunit (Sus scrofa, UniProt P43367).
T5 sequence (P43367 whole entry): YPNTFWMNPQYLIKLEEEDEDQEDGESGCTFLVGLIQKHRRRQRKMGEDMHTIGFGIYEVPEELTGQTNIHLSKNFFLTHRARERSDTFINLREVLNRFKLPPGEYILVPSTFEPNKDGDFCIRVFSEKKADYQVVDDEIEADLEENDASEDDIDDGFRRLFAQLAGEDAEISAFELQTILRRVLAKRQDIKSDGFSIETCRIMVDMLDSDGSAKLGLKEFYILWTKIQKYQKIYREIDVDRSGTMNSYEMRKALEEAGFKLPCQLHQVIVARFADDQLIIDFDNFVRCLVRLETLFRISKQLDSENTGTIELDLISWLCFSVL
Nature of the data set: pig calpain II inhibitor potency, dose response, biochemical, fluorogenic peptide substrate (AID 1420). The data set is classed as functional.

Sequence of Induced myeloid leukemia cell differentiation protein Mcl-1 (Q07820 whole entry): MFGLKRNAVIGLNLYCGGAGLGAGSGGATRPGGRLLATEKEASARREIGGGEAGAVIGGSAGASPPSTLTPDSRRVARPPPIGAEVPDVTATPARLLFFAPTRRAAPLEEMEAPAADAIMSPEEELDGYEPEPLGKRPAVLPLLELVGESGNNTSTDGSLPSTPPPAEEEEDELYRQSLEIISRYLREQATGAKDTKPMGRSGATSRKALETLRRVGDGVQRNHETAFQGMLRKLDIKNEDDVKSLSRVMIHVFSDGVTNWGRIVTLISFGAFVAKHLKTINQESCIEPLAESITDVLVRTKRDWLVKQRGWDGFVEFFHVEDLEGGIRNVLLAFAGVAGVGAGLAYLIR
Sequence of Aryl hydrocarbon receptor (P35869 whole entry): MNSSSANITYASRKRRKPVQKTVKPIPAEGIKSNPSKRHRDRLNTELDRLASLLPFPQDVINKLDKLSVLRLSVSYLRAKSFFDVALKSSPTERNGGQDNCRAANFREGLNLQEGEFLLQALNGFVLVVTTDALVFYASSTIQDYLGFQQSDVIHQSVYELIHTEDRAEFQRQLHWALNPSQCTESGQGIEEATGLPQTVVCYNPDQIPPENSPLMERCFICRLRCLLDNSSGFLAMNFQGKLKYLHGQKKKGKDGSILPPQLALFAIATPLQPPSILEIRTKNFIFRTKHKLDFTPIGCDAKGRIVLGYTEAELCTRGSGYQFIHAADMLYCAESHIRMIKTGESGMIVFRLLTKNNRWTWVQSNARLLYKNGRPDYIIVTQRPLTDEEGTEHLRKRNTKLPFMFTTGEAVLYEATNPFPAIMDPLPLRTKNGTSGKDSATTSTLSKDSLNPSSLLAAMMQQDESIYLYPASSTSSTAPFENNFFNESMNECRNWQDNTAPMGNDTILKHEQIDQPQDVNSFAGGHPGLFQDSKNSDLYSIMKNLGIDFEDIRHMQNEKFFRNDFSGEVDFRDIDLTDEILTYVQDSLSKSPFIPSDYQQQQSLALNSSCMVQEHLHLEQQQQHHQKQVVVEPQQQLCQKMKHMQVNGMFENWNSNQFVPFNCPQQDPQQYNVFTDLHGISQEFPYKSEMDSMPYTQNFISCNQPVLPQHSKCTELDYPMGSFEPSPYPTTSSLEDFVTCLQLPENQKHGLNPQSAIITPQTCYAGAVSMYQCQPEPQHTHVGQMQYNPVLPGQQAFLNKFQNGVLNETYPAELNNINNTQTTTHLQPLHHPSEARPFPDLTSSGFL
Sequence of NADPH oxidase 1 (Q9Y5S8 whole entry): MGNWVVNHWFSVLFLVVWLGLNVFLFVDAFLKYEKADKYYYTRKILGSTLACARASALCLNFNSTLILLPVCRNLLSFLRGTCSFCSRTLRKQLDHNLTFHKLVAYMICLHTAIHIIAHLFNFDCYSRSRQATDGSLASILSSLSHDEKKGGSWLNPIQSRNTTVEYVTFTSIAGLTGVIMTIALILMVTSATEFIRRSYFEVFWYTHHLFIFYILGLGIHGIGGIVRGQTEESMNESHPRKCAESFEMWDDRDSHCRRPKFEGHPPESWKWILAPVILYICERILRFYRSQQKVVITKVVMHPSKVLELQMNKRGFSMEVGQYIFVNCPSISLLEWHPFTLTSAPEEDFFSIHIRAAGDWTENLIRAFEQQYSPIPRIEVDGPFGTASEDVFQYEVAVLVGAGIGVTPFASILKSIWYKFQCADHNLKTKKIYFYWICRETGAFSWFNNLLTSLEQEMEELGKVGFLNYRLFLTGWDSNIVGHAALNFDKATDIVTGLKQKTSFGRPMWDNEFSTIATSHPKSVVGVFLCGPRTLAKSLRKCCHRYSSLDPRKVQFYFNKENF
Sequence of Bcl-2-like protein 1 (Q07817 whole entry): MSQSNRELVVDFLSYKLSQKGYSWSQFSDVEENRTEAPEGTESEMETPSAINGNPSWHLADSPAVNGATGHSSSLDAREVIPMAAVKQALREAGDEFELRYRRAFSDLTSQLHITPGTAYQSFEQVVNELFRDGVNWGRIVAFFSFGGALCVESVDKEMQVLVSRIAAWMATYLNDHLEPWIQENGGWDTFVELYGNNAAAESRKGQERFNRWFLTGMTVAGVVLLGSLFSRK
Sequence of Melanocortin receptor 4 (P32245 whole entry): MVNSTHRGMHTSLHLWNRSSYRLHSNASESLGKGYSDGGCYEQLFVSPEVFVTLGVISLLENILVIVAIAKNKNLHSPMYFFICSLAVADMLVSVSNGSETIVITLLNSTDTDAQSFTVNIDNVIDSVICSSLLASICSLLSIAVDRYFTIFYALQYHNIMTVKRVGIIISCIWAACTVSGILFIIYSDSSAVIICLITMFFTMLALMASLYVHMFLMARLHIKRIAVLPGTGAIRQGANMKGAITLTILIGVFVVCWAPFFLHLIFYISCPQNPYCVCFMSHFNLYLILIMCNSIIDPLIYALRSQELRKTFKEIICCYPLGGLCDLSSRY
Sequence of Large T antigen (P03070 whole entry): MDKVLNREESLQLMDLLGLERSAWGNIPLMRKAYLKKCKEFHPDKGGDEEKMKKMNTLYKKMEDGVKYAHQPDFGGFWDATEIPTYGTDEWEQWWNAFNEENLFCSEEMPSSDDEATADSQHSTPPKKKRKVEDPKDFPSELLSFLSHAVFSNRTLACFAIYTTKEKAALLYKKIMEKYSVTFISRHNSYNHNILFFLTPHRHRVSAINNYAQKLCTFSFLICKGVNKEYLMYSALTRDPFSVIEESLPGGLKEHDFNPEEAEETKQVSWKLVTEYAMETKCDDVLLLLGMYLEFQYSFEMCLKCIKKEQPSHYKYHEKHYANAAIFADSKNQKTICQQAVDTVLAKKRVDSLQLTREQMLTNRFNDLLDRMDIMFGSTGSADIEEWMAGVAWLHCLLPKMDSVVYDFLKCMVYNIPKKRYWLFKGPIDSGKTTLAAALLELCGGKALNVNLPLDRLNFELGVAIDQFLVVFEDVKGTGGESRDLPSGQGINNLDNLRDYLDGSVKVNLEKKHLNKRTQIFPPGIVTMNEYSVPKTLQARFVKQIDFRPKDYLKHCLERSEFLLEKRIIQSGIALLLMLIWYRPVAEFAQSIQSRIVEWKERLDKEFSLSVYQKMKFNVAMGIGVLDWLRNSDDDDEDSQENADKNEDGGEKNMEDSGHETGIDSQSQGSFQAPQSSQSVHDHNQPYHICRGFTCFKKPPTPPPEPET
Sequence of Cytochrome P450 3A4 (P08684 whole entry): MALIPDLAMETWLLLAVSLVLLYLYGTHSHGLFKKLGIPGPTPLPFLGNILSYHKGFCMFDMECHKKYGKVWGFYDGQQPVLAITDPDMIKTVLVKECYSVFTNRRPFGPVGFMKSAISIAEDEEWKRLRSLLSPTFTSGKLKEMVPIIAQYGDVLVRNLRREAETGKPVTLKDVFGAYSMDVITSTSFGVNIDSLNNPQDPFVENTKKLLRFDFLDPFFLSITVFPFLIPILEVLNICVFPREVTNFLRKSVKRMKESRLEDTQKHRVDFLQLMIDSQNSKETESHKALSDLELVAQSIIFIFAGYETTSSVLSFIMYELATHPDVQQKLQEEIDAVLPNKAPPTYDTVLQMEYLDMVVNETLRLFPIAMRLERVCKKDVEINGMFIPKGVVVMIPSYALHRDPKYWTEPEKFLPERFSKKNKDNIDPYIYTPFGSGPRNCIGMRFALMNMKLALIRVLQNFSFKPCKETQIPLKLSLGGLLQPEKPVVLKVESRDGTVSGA
Sequence of Estrogen receptor beta (Q92731 whole entry): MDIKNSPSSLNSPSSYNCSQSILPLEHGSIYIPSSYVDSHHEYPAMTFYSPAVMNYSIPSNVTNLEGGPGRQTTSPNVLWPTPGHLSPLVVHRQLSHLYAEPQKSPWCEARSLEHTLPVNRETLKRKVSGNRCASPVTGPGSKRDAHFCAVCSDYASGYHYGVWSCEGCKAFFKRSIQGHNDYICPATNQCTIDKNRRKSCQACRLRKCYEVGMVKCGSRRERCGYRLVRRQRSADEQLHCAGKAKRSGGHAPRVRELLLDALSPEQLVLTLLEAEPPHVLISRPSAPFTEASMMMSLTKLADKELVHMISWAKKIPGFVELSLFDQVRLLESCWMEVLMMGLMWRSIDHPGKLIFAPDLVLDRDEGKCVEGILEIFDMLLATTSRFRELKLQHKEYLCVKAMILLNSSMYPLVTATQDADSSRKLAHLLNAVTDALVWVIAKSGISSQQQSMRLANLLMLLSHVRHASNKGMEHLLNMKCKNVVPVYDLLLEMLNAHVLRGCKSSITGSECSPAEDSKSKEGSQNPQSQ
Sequence of Cytochrome P450 2C9 (P11712 whole entry): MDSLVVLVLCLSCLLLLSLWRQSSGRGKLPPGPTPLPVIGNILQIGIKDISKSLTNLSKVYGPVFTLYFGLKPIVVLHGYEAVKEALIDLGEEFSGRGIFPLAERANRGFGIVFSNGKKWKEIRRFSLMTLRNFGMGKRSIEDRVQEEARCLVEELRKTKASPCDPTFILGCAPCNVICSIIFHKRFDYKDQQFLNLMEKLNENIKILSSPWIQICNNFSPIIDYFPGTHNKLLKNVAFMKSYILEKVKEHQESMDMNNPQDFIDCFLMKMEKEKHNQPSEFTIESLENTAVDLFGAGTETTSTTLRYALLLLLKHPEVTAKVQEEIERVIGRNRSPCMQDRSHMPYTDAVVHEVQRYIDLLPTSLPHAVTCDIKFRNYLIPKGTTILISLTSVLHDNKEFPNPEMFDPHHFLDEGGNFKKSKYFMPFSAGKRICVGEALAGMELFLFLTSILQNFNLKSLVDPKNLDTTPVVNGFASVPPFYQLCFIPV
Sequence of 14-3-3 protein gamma (P61981 whole entry): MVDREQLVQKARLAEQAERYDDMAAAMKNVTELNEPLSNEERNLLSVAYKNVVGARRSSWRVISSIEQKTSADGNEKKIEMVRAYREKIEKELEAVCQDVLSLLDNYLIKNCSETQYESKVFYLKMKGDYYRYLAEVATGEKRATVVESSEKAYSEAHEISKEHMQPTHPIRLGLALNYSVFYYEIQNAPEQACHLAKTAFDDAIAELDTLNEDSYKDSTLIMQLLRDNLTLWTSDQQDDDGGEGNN

One may read the EC50 as the concentration that produces a half-maximal response. The term AC50 denotes the concentration giving half of the maximal activity seen. With `Clc1ccc(C[n+]2c(-c3ccccc3)cc(-c3ccccc3)cc2-c2ccccc2)cc1.[O-][Cl+3]([O-])([O-])[O-]`, the EC50 was < 0.1 µM (active) in [1], > 60 µM (not active) in [2], > 89.2 µM (inactive) at Melanocortin receptor 4 and 0.173 µM (active) in “cells”. Besides, the AC50 with INS1 was 2.05 µM (active).
On to `COc1ccccc1-c1nnc(NC(C)=O)s1`, for which, in data set [3], the EC50 is listed as 11 µM (not active). Moreover, the AC50 entry at Cytochrome P450 2C9 was “inconclusive”.
By IC50 is commonly meant the point on the concentration scale where inhibition reaches its midpoint. On to `NC(=O)Cn1c(=O)n(Cc2ccco2)c(=O)c2c3c(sc21)CCCCC3`, for which the EC50 (in data set [4]; in [5]; in the data set on H4) was > 120 µM (not active) throughout. Further, the IC50 on Large T antigen was 33 µM (active); on Estrogen receptor beta, < 0.023 µM (not active). The AC50 at Cytochrome P450 3A4 is 25.1 µM (inconclusive).
For `COc1ccc(-c2nc(-c3ccc(OC)c(OC)c3)[nH]c2-c2ccc(OC)cc2)cc1`, the half-inhibitory concentration (IC50) on NADPH oxidase 1 is recorded as > 17 µM (not active).
As for `COc1cc(NC(=O)c2noc3c2CCC3)c(OC)cc1Cl`, the IC50 in data set [6] is recorded as 11.1 µM (not active); against Bcl-2-like protein 1, > 109 µM (not active).
With `COc1ccc(C2=CC3=C(Br)C(=O)C(C)(OC(=O)c4cccs4)C(=O)C3=CO2)cc1` (stereo unspecified), the concentration giving a half-maximal response (EC50) in data set [7] is 32.8 µM (active); in [8], 29.1 µM (active). Moreover, the IC50 in [6] was 16.8 µM (not active); at Bcl-2-like protein 1, > 109 µM (not active). Also, the figures for the AC50 in data set [9] and in [10] were 2.35 µM (active) and > 100 µM (inactive), respectively.
For the compound `CC1Cc2ccccc2N1C(=O)CSc1nnc(-c2ccc(S(=O)(=O)N3CCCC3)cc2)o1` (stereo unspecified), at Estrogen receptor, the EC50 was 7.79 µM (active).
For orientation: CC50 means the concentration giving 50% cytotoxicity. Take `Cc1ccc2nc(NC(=O)c3cccc(-c4cc5ccccc5oc4=O)c3)sc2c1`: in the data set with Vero, the CC50 is > 100 µM (active). Also, the EC50 in [1] was 1.09 µM (active); in [2], > 60 µM (not active). For the same compound, the AC50 in data set [11] is 1.71 µM (active).
For `CC(=O)Nc1ccc(/C=N/Nc2c(Cl)cc(Cl)cc2Cl)cc1`, the IC50 on NADPH oxidase 1 is on record as > 17 µM (not active).
For the compound `COc1ccccc1-n1nnnc1SCc1cc2c(cc1Br)OCO2`, the results for the IC50 (at 14-3-3 protein gamma; in data set [12]) were > 50 µM (not active) and 1.36 µM (not active), respectively.
On to `COc1cc(/C=N/NC(=O)c2cccc(NC(=O)c3ccccc3)c2)ccc1O`, for which the concentration for a half-maximal effect (EC50) in [3] is 5.62 µM (active).
